Data from PubChem BioAssay (NCI).
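Assay format: 96-well plates, 48-hour exposure. TGI: total growth inhibition.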

Experiments:
Test in all cases: NCI anticancer screen, dose series, 48 h
TK-10 renal = tested on: TK-10 renal
SK-MEL-28 melanoma = tested on: SK-MEL-28 melanoma
HCT-116 colon = tested on: HCT-116 colon
NCI-H460 lung = tested on: NCI-H460 lung
HT29 colon = tested on: HT29 colon
HCT-15 colon = tested on: HCT-15 colon
ACHN renal = tested on: ACHN renal
CCRF-CEM leukemia = tested on: CCRF-CEM leukemia
NCI-H226 lung = tested on: NCI-H226 lung
SK-MEL-5 melanoma = tested on: SK-MEL-5 melanoma
UACC-62 melanoma = tested on: UACC-62 melanoma
OVCAR-8 ovarian = tested on: OVCAR-8 ovarian
DMS 114 small cell lung = tested on: DMS 114 small cell lung
DLD-1 colon = tested on: DLD-1 colon
HL-60(TB) leukemia = tested on: HL-60(TB) leukemia
RPMI-8226 leukemia = tested on: RPMI-8226 leukemia
SF-295 CNS = tested on: SF-295 CNS
SNB-19 CNS = tested on: SNB-19 CNS
A549 NSCLC = tested on: A549 NSCLC
OVCAR-5 ovarian = tested on: OVCAR-5 ovarian
OVCAR-3 ovarian = tested on: OVCAR-3 ovarian
KM20L2 colon = tested on: KM20L2 colon
SN12C renal = tested on: SN12C renal
UO-31 renal = tested on: UO-31 renal
HOP-92 NSCLC = tested on: HOP-92 NSCLC
SR leukemia = tested on: SR leukemia
EKVX NSCLC = tested on: EKVX NSCLC
SNB-75 CNS = tested on: SNB-75 CNS
UACC-257 melanoma = tested on: UACC-257 melanoma
HOP-62 NSCLC = tested on: HOP-62 NSCLC
U251 CNS = tested on: U251 CNS
M19-MEL melanoma = tested on: M19-MEL melanoma
SK-MEL-2 melanoma = tested on: SK-MEL-2 melanoma
K-562 leukemia = tested on: K-562 leukemia
SW-620 colon = tested on: SW-620 colon
MOLT-4 leukemia = tested on: MOLT-4 leukemia
NCI-H522 lung = tested on: NCI-H522 lung
DMS 273 small cell lung = tested on: DMS 273 small cell lung
MALME-3M melanoma = tested on: MALME-3M melanoma
LXFL 529 NSCLC = tested on: LXFL 529 NSCLC
HCC-2998 colon = tested on: HCC-2998 colon
IGROV1 ovarian = tested on: IGROV1 ovarian
NCI-H23 lung = tested on: NCI-H23 lung
RXF-631 renal = tested on: RXF-631 renal
M14 melanoma = tested on: M14 melanoma
SNB-78 CNS = tested on: SNB-78 CNS
786-0 renal = tested on: 786-0 renal
SF-268 CNS = tested on: SF-268 CNS
XF 498 CNS = tested on: XF 498 CNS
A498 renal = tested on: A498 renal
LOX IMVI melanoma = tested on: LOX IMVI melanoma
KM12 colon = tested on: KM12 colon
OVCAR-4 ovarian = tested on: OVCAR-4 ovarian
SF-539 CNS = tested on: SF-539 CNS
RXF 393 renal = tested on: RXF 393 renal

In the case of `CC1=C(CO)C(=O)OC(C(C)C2CCC3C4CC5OC56C(O)C(N5CC5)=CC(=O)C6(C)C4CCC23C)C1` (stereo not given), the TGI (TK-10 renal) is reported as 22 µM, the TGI (SK-MEL-28 melanoma) is reported as 31.1 µM and the TGI (HCT-116 colon) is reported as 12.2 µM. It also gave a TGI (NCI-H460 lung) of 25 µM, a TGI (HT29 colon) of 13.7 µM and a TGI (HCT-15 colon) of 12.9 µM. For the same compound, the TGI (ACHN renal) was 19.5 µM, the TGI (CCRF-CEM leukemia) was 7.45 µM and the TGI (NCI-H226 lung) was 29.1 µM. The TGI (SK-MEL-5 melanoma) was 25.4 µM, the TGI (UACC-62 melanoma) was 23.8 µM and the TGI (OVCAR-8 ovarian) was 5.78 µM. For the same compound, the TGI (DMS 114 small cell lung) was 5.85 µM, the TGI (DLD-1 colon) was 17.6 µM and the TGI (HL-60(TB) leukemia) was 6.08 µM. For the same compound, the TGI (RPMI-8226 leukemia) was 17.8 µM, the TGI (SF-295 CNS) was 33.7 µM and the TGI (SNB-19 CNS) was 9.56 µM. For the same compound, the TGI (A549 NSCLC) was 29.6 µM, the TGI (OVCAR-5 ovarian) was 31.2 µM and the TGI (OVCAR-3 ovarian) was 11.7 µM. The TGI (KM20L2 colon) was 9.87 µM, the TGI (SN12C renal) was 19.5 µM and the TGI (UO-31 renal) was 25.7 µM. For the same compound, the TGI (HOP-92 NSCLC) was 19.3 µM, the TGI (SR leukemia) was 10.5 µM and the TGI (EKVX NSCLC) was 25.6 µM. For the same compound, the TGI (SNB-75 CNS) was 18.6 µM, the TGI (UACC-257 melanoma) was 24.4 µM and the TGI (HOP-62 NSCLC) was 40.7 µM. For the same compound, the TGI (U251 CNS) was 15.1 µM, the TGI (M19-MEL melanoma) was 23.5 µM and the TGI (SK-MEL-2 melanoma) was 18.1 µM. The TGI (K-562 leukemia) was 14.2 µM, the TGI (SW-620 colon) was 6.4 µM and the TGI (MOLT-4 leukemia) was 8.52 µM. It also gave a TGI (NCI-H522 lung) of 3.36 µM, a TGI (DMS 273 small cell lung) of 17.9 µM and a TGI (MALME-3M melanoma) of 25.1 µM. The TGI (LXFL 529 NSCLC) was 15.9 µM, the TGI (HCC-2998 colon) was 9.73 µM and the TGI (IGROV1 ovarian) was 14.4 µM. It also gave a TGI (NCI-H23 lung) of 7 µM, a TGI (RXF-631 renal) of 34.5 µM and a TGI (M14 melanoma) of 24.6 µM. It also gave a TGI (SNB-78 CNS) of 46.9 µM, a TGI (786-0 renal) of 17.8 µM and a TGI (SF-268 CNS) of 15.5 µM. The TGI (XF 498 CNS) was 16.4 µM, the TGI (A498 renal) was 16.3 µM and the TGI (LOX IMVI melanoma) was 31.1 µM. It also gave a TGI (KM12 colon) of 5.01 µM, a TGI (OVCAR-4 ovarian) of 20.6 µM and a TGI (SF-539 CNS) of 14 µM. It also gave a TGI (RXF 393 renal) of 26.9 µM.
